Here are results for 17 molecules from patent US20060142348A1, “Aryl sulfonamide peri-substituted bicyclics for occlusive artery disease” (deCODE Chemistry, Inc., priority 2004, published 2006).

Each structure is given as a SMILES string. Where only a bound is given, the exact number is not on record here.

For the experiment, the target named is T1, prostanoid EP3 receptors (Homo sapiens, UniProt P43115).
T1 sequence (P43115 1-365 isoform P43115-3): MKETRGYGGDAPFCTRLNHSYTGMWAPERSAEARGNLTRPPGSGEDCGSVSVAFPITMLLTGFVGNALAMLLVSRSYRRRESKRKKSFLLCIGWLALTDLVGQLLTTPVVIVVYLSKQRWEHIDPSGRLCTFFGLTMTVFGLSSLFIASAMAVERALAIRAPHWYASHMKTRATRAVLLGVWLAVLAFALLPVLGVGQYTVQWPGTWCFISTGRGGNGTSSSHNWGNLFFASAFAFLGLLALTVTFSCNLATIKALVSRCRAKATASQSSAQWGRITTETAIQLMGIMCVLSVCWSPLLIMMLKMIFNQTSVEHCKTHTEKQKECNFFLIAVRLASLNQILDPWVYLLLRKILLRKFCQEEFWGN
Nature of the experiment: binding on prostanoid EP3 receptors (method of Abramovitz et al.). The conditions noted are these: read-out: Activity (EP3 receptor binding IC50). As for the experimental part:
The compounds of the invention may be assayed for their binding on prostanoid EP3 receptors according to the method of Abramovitz et al. [Bioch. Biophys. Actas 1473, 285-293 (2000)]. All of the examples in the tables below have been synthesized, characterized and tested for EP3 receptor binding.
The compounds of the invention were assayed for their binding on prostanoid EP3 receptors according to the method of Abramovitz et al. [Bioch. Biophys. Acta, 1473, 285-293 (2000)]. […] Compounds with IC50<1 μM are shown as +++; compounds with IC50<1-10 μM are shown as ++; and compounds with IC50>10 μM are shown as +.
`Cc1cn(Cc2ccc(F)c(F)c2)c2c(-c3cc(NS(=O)(=O)c4cc(Cl)c(Cl)s4)no3)cc(F)cc12` [Compound B31, 4,5-Dichloro-thiophene-2-sulfonic acid {5-[1-(3,4-difluoro-benzyl)-5-fluoro-3-methyl-1H-indol-7-yl]-isoxazol-3-yl}-amide]: the IC50 was under 1 µM.
The value for `Cc1cn(Cc2ccc(F)c(F)c2)c2c(-c3cc(NS(=O)(=O)c4ccc(F)c(F)c4)no3)cc(F)cc12` [Compound B32, N-{5-[1-(3,4-Difluoro-benzyl)-5-fluoro-3-methyl-1H-indol-7-yl]-isoxazol-3-yl}-3,4-difluoro-benzenesulfonamide] was under 1 µM.
The same measure for `Cc1cn(Cc2ccc(F)c(F)c2)c2c(-c3cc(NS(=O)(=O)c4cc(F)c(F)cc4F)no3)cc(F)cc12` [Compound B33, N-{5-[1-(3,4-Difluoro-benzyl)-5-fluoro-3-methyl-1H-indol-7-yl]-isoxazol-3-yl}-2,4,5-trifluoro-benzenesulfonamide]: under 1 µM; for `Cc1cn(Cc2ccc(Cl)cc2Cl)c2c(-c3cc(NS(=O)(=O)c4cc(Cl)c(Cl)s4)no3)cc(F)cc12` [Compound B34, 4,5-Dichloro-thiophene-2-sulfonic acid {5-[1-(2,4-dichloro-benzyl)-5-fluoro-3-methyl-1H-indol-7-yl]-isoxazol-3-yl}-amide]: under 1 µM; for `Cc1cn(Cc2ccc(Cl)cc2Cl)c2c(-c3cc(NS(=O)(=O)c4ccc(F)c(F)c4)no3)cc(F)cc12` [Compound B35, N-{5-[1-(2,4-Dichloro-benzyl)-5-fluoro-3-methyl-1H-indol-7-yl]-isoxazo 1-3-yl}-3,4-difluoro-benzenesulfonamide]: under 1 µM.
Turning to `Cc1cn(Cc2ccc(Cl)cc2Cl)c2c(-c3cc(NS(=O)(=O)c4cc(F)c(F)cc4F)no3)cc(F)cc12` [Compound B36, N-{5-[1-(2,4-Dichloro-benzyl)-5-fluoro-3-methyl-1H-indol-7-yl]-isoxazol-3-yl}-2,4,5-trifluoro-benzenesulfonamide], the half-inhibitory concentration (IC50) was under 1 µM.
As for `Cc1cn(Cc2ccc(Cl)cc2Cl)c2c(-c3cc(NS(=O)(=O)c4ccc(Cl)c(Cl)c4)no3)cc(F)cc12` [Compound B37, 3,4-Dichloro-N-{5-[1-(2,4-dichloro-benzyl)-5-fluoro-3-methyl-1H-indol-7-yl]-isoxazol-3-yl}-benzenesulfonamide], the IC50 is under 1 µM.
The same measure for `Cc1cn(Cc2ccc3ccccc3c2)c2c(-c3cc(NS(=O)(=O)c4ccc(F)c(F)c4)no3)cc(F)cc12` [Compound B38, 3,4-Difluoro-N-[5-(5-fluoro-3-methyl-1-naphthalen-2-ylmethyl-1H-indol-7-yl)-isoxazol-3-yl]-benzenesulfonamide]: under 1 µM.
Turning to `Cc1cn(Cc2ccc3ccccc3c2)c2c(-c3cc(NS(=O)(=O)c4cc(F)c(F)cc4F)no3)cc(F)cc12` [Compound B39, 2,4,5-Trifluoro-N-[5-(5-fluoro-3-methyl-1-naphthalen-2-ylmethyl-1H-indol-7-yl)-isoxazol-3-yl]-benzenesulfonamide], the IC50 was under 1 µM.
The same measure for `Cc1cn(Cc2ccc3ccccc3c2)c2c(-c3cc(NS(=O)(=O)c4ccc(Cl)c(Cl)c4)no3)cc(F)cc12` [Compound B40, 3,4-Dichloro-N-[5-(5-fluoro-3-methyl-1-naphthalen-2-ylmethyl-1H-indol-7-yl)-isoxazol-3-yl]-benzenesulfonamide]: under 1 µM; for `Cc1cn(Cc2ccc3ccccc3c2)c2c(-c3cc(NS(=O)(=O)c4cc(Cl)c(Cl)s4)no3)cc(F)cc12` [Compound B41]: under 1 µM; for `Cc1cn(Cc2ccc(Cl)cc2Cl)c2c(-c3nc(NS(=O)(=O)c4cc(Cl)c(Cl)s4)no3)cc(F)cc12` [Compound B42, 5-Dichloro-thiophene-2-sulfonic acid {5-[1-(2,4-dichloro-benzyl)-5-fluoro-3-methyl-1H-indol-7-yl]-[1,2,4]oxadiazol-3-yl}-amide]: under 1 µM.
The same measure for `Cn1cc(-c2csc(NS(=O)(=O)c3cc(Cl)c(Cl)s3)n2)c2c(Oc3ccc4ccccc4c3)cccc21` [Compound B43, 4,5-Dichloro-thiophene-2-sulfonic acid {4-[1-methyl-4-(naphthalen-2-yloxy)-1H-indol-3-yl]-thiazol-2-yl}-amide]: 1 to 10 µM; for `Cn1cc(-c2csc(NS(=O)(=O)c3ccc(F)c(F)c3)n2)c2c(Oc3ccc4ccccc4c3)cccc21` [Compound B44, 3,4-Difluoro-N-{4-[1-methyl-4-(naphthalen-2-yloxy)-1H-indol-3-yl]-thiazol-2-yl}-benzenesulfonamide]: 1 to 10 µM.
As for `Cn1cc(-c2cc(NS(=O)(=O)c3ccc(F)c(F)c3)no2)c2c(Oc3ccc4ccccc4c3)cccc21` [Compound B45, 3,4-Difluoro-N-{5-[1-methyl-4-(naphthalen-2-yloxy)-1H-indol-3-yl]-isoxazol-3-yl}-benzenesulfonamide], the IC50 was under 1 µM.
Regarding `Cc1cn(Cc2ccc(Cl)cc2Cl)c2c(-c3ccc(NS(=O)(=O)c4cc(Cl)c(Cl)s4)nc3)cc(F)cc12` [Compound B46, 4,5-Dichloro-thiophene-2-sulfonic acid {5-[1-(2,4-dichloro-benzyl)-5-fluoro-3-methyl-1H-indol-7-yl]-pyridin-2-yl}-amide], the concentration for half-maximal inhibition (IC50) is under 1 µM.
The value for `COc1cccc(CN2C(=O)CC3(C)CCCC(c4csc(NS(=O)(=O)c5ccc(F)c(F)c5)n4)=C23)c1` (centres unmarked) [Compound B47, 3,4-Difluoro-N-{4-[1-(3-methoxy-benzyl)-3a-methyl-2-oxo-2,3,3a,4,5,6-hexahydro-1H-indol-7-yl]-thiazol-2-yl}-benzenesulfonamide] was under 1 µM.
